Reference: publication PMC5702617, “Novel peptide probes to assess the tensional state of fibronectin fibers in cancer” (Nature Communications, 2017)
Values joined by “and” are separate entries in the source; they are usually repeats but may differ in a detail not shown here. Identical values can stand only once. Residues, ends and D or L forms follow the SMILES beside them. *: point of attachment. X1 = O=C(O)CN1CCN(CC(=O)O)CCN(C(CCC(=O)NCCN2C(=O)CC(*)C2=O)C(=O)O)CC1

Legend:
[1] = In vitro plasma stability; assay type: in vitro ADME, human; details: 37°C, 1 hour time point, RP-HPLC, means from three experiments
Experimental: The stability of peptides in blood is often limited as they are rapidly cleaved by catalytic enzymes found in tissue and blood, resulting in a short biological half-life. […] To verify whether the FnBPA5 peptide can be used for in vivo applications, we next performed a plasma stability test. The metabolic stability of the peptide radiotracer ^111In-FnBPA5 was tested in vitro by incubating the radiolabeled FnBPA5 at 37°C with human blood plasma, or water as control. The unbound peptide fraction was separated from the plasma proteins at different time points (0, 1, 24, 48, and 72 h) and was analyzed by reversed-phase high-pressure liquid chromatography (RP-HPLC).
After that, the samples were filtrated using a Thomson Single StEP Filter vial 0.45 μm PVDF (Thomson Instrument Company, Oceanside, USA) and the supernatant was analyzed by reversed-phase HPLC (Varian Prostar HPLC System, SpectraLab Scientific Inc., Canada) using a D-Bio Discovery Wide Pore C18 column (25 cm × 4.6 mm; 5 μm).

[2] = Biodistribution in PC-3 tumor grafted mice; assay type: in vivo, mouse; details: female, CD1 nude, mouse, in vivo, iv, total radioactivity; 1 h p.i.; PC-3 grafted mice, i.v. 150 kBq (2.4 nmol, 100 µL PBS), γ counter, mean ± SD, n = 4; read-out: Biodistribution, Kidneys
Experimental: (§1) Experiments were performed 3–4 weeks after inoculation.
(§2) For the biodistribution experiments, PC-3 tumor grafted mice were injected into the tail vein with 150 kBq ^111In-FnBPA5 or ^111In-scrambled FnBPA5 (2.4 nmol, 100 µL PBS). For each peptide, groups of four mice were sacrificed at 1, 4, 24, and 96 h post injection. Blocking experiment (n = 4) was performed by injection of an excess of peptide (100 µg, 24 nmol in 100 µL PBS) directly before the administration of the corresponding radiolabeled peptide. The organs were collected, weighed and counted for activity with a γ counter (Packard Cobra II Auto, Gamma, PerkinElmer AG, Schwerzenbach, Switzerland) 4 h p.i. The results were expressed as a percentage of injected activity per gram of tissue (% IA per g tissue). The Student's t test analyses were considered as type 3 (two sample unequal variance) and statistical significance was assumed for p-values smaller than 0.05.

PC-3-bearing mice [3] = assay: Biodistribution in PC-3 tumor grafted mice; assay type: in vivo, mouse; details: PC-3 grafted mice, i.v. 150 kBq (2.4 nmol, 100 µL PBS), γ counter, mean ± SD, n = 4
Experimental: as §1, §2

PC-3-bearing mice [4] = assay: In vivo blocking experiment in PC-3 tumor grafted mice; set-up: species or system mouse; details: n = 4
Experimental: as §2

PC-3-bearing mice [5] = assay: SPECT/CT imaging of PC-3-bearing mice; assay type: in vivo, mouse
Experimental: Thirty-three days from the inoculation of the tumor cells, the mice were intravenously injected with ~15 MBq ^111In-FnBPA5 resp. ^111In-scrambled FnBPA5-NODAGA (2.4 nmol, 100 µL PBS) into the tail vein. […] The images were reconstituted and processed with InVivoScope® software (Bioscan Inc., Washington DC, USA).

[6] = biological target: fibronectin N-terminal fragments (Homo sapiens) (UniProt P02751); details: cited from earlier work
[7] = 4h p.i. blocking: corresponding unlabeled peptide (24 nmol) i.v. directly before the radiolabeled peptide, PC-3 grafted mice, mean ± SD

Sequence of FnBPA5 (P14738 636-672): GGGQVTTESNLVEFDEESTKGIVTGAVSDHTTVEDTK
Sequence of fibronectin N-terminal fragments (Homo sapiens) (P02751 50-273): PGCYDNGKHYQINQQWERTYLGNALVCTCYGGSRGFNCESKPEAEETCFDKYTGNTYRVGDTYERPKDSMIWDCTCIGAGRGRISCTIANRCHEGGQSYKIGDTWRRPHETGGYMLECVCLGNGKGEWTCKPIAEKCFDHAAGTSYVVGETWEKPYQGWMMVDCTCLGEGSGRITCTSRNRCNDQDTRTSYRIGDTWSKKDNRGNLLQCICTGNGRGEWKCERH

## CC[C@H](C)[C@H](NC(=O)[C@@H](NC(=O)[C@H](CCC(=O)O)NC(=O)CNC(=O)[C@H](Cc1ccccc1)NC(=O)[C@H](CC(=O)O)NC(=O)[C@@H](NC(=O)[C@H](CCCCN)NC(=O)[C@@H](NC(=O)CNC(=O)[C@@H](NC(=O)[C@H](CC(C)C)NC(=O)[C@H](CC(=O)O)NC(=O)[C@H](CCC(=O)O)NC(=O)[C@H](CCC(N)=O)NC(=O)[C@H](CCC(=O)O)NC(=O)[C@H](CO)NC(=O)CNC(=O)[C@@H](N)CSC1CC(=O)N(CCNC(=O)CCC(C(=O)O)N2CCN(CC(=O)O)CCN(CC(=O)O)CC2)C1=O)[C@@H](C)O)[C@@H](C)O)C(C)C)[C@@H](C)O)C(=O)N[C@H](C(=O)N[C@H](C(=O)N[C@@H](CC(N)=O)C(=O)N[C@@H](CCC(=O)O)C(=O)N[C@@H](C)C(=O)N[C@H](C(=O)N[C@@H](CCC(=O)O)C(=O)N[C@H](C(=O)N[C@H](C(=O)N[C@H](C(=O)N[C@@H](CO)C(=O)NCC(=O)N[C@@H](CO)C(=O)N[C@H](C(=O)N[C@@H](Cc1c[nH]cn1)C(=O)NCC(=O)N[C@H](C(=O)N[C@@H](CCCCN)C(=O)N[C@H](C(=O)O)C(C)C)[C@@H](C)O)[C@@H](C)O)[C@@H](C)O)C(C)C)[C@@H](C)O)[C@@H](C)O)C(C)C)C(C)C (stereo partly shown) [111In-scrambled FnBPA5, metal not drawn] (H-C(X1)GSEQEDLTGTKVDFGETIVVNEATETVTSGSTHGTKV-OH; N-terminus and C-terminus assumed)
[1]
  stability in human blood plasma: high stability
[2]
  tissue uptake at 1 h: 163 ± 18 %ID/g
PC-3-bearing mice [3]; 1 h p.i.
  Biodistribution, Blood: 0.26 ± 0.064 IA% / g
  Biodistribution, Bone: 0.15 ± 0.035 IA% / g
  Biodistribution, Heart: 0.12 ± 0.03 IA% / g
  Biodistribution, Intestines: 0.09 ± 0.01 IA% / g
  Biodistribution, Kidneys: 163.70 ± 18.90 IA% / g
  Biodistribution, Liver: 0.10 ± 0.02 IA% / g
  Biodistribution, Lung: 0.19 ± 0.03 IA% / g
  Biodistribution, Muscle: 0.09 ± 0.025 IA% / g
  Biodistribution, Pancreas: 0.78 ± 0.295 IA% / g
  Biodistribution, Spleen: 0.21 ± 0.039 IA% / g
  Biodistribution, Stomach: 0.12 ± 0.013 IA% / g
  Biodistribution, Tumor: 0.27 ± 0.08 IA% / g
PC-3-bearing mice [3]; 4 h p.i.
  Biodistribution, Blood: 0.07 ± 0.008 IA% / g and 0.07 ± 0.01 IA% / g
  Biodistribution, Bone: 0.10 ± 0.01 IA% / g
  Biodistribution, Heart: 0.06 ± 0.006 IA% / g
  Biodistribution, Intestines: 0.04 ± 0.012 IA% / g and 0.04 ± 0.01 IA% / g
  Biodistribution, Kidneys: 151.43 ± 9.056 IA% / g and 151.43 ± 9.06 IA% / g
  Biodistribution, Liver: 0.08 ± 0.026 IA% / g and 0.08 ± 0.03 IA% / g
  Biodistribution, Lung: 0.08 ± 0.005 IA% / g and 0.08 ± 0.01 IA% / g
  Biodistribution, Muscle: 0.04 ± 0.019 IA% / g and 0.04 ± 0.02 IA% / g
  Biodistribution, Pancreas: 0.64 ± 0.549 IA% / g and 0.64 ± 0.55 IA% / g
  Biodistribution, Spleen: 0.13 ± 0.036 IA% / g and 0.13 ± 0.03 IA% / g
  Biodistribution, Stomach: 0.06 ± 0.006 IA% / g
  Biodistribution, Tumor: 0.14 ± 0.02 IA% / g
PC-3-bearing mice [3]; 24 h p.i.
  Biodistribution, Blood: 0.04 ± 0.005 IA% / g
  Biodistribution, Bone: 0.09 ± 0.021 IA% / g
  Biodistribution, Heart: 0.04 ± 0.005 IA% / g
  Biodistribution, Intestines: 0.03 ± 0.00 IA% / g
  Biodistribution, Kidneys: 104.62 ± 9.412 IA% / g
  Biodistribution, Liver: 0.07 ± 0.010 IA% / g
  Biodistribution, Lung: 0.05 ± 0.006 IA% / g
  Biodistribution, Muscle: 0.08 ± 0.026 IA% / g
  Biodistribution, Pancreas: 0.21 ± 0.162 IA% / g
  Biodistribution, Spleen: 0.14 ± 0.048 IA% / g
  Biodistribution, Stomach: 0.04 ± 0.017 IA% / g
  Biodistribution, Tumor: 0.09 ± 0.01 IA% / g
PC-3-bearing mice [3]; 96 h p.i.
  Biodistribution, Blood: 0.02 ± 0.005 IA% / g
  Biodistribution, Bone: 0.13 ± 0.036 IA% / g
  Biodistribution, Heart: 0.04 ± 0.005 IA% / g
  Biodistribution, Intestines: 0.02 ± 0.010 IA% / g
  Biodistribution, Kidneys: 23.63 ± 9.883 IA% / g
  Biodistribution, Liver: 0.05 ± 0.005 IA% / g
  Biodistribution, Lung: 0.04 ± 0.014 IA% / g
  Biodistribution, Muscle: 0.04 ± 0.013 IA% / g
  Biodistribution, Pancreas: 0.06 ± 0.016 IA% / g
  Biodistribution, Spleen: 0.10 ± 0.029 IA% / g
  Biodistribution, Stomach: 0.04 ± 0.029 IA% / g
  Biodistribution, Tumor: 0.16 ± 0.08 IA% / g
PC-3-bearing mice [4]; 24 nmol unlabeled peptide pre-injected, 4 h p.i., Student's t test
  effect of pre-injection of unlabeled peptide on accumulation: no significant differences
PC-3-bearing mice [4]; [7]
  Biodistribution with blocking, Blood: 0.07 ± 0.01 IA% / g
  Biodistribution with blocking, Intestines: 0.07 ± 0.05 IA% / g
  Biodistribution with blocking, Kidneys: 128.81 ± 17.44 IA% / g
  Biodistribution with blocking, Liver: 0.08 ± 0.01 IA% / g
  Biodistribution with blocking, Lung: 0.10 ±0.03 IA% / g
  Biodistribution with blocking, Muscle: 0.04 ± 0.00 IA% / g
  Biodistribution with blocking, Pancreas: 1.41 ±1.25 IA% / g
  Biodistribution with blocking, Spleen: 0.18 ± 0.03 IA% / g
  Biodistribution with blocking, Stomach: 0.08 ± 0.04 IA% / g
  Biodistribution with blocking, Tumor: 0.14 ± 0.04 IA% / g
PC-3-bearing mice [5]; ~15 MBq (2.4 nmol, 100 µL PBS) i.v., up to 96 h p.i.
  SPECT/CT distribution: mainly accumulated in the kidneys
PC-3-bearing mice [5]; ~15 MBq i.v., 96 h p.i., post mortem, kidneys removed
  SPECT/CT distribution after kidney removal: no uptake was visible

## FnBPA5 (from UniProt P14738)
[6]
  Kd: 44.2 nM
